Results on three molecules are retold here after patent US20070213226A1, “AGROCHEMICAL COMPOSITIONS COMPRISING ALKYLENEDIOL-MODIFIED POLYSILOXANES” (priority 2006, published 2007).

For assay [1], the system named is Poa pratensis (meadowgrass or Kentucky blue grass). The assay is described as follows: Greenhouse trial, sulfonylurea herbicides for grass weed control. The class given is in vivo. The following applies: mean of 3 replicates ± SD. The protocol: Greenhouse trials were carried out where the effect of ADS-1 on the efficacy of the sulfonylurea herbicides nicosulfuron (4.2% SC Motivell from BASF) and rimsulfuron (25% WG Cato from Dupont) for grass weed control was tested. Seed of the grass Poa pratensis (meadowgrass or Kentucky blue grass) was densely sown in pots and grown for 6 weeks until reaching a height of about 25 cm. The herbicides were tank mixed with the adjuvant ADS-1 at doses given also in the table. […] Researchers trained in the art have knowledge about such technology, and about the method of assessment.

In assay [2] the test system is Senna tora (sickle senna). The assay is described as follows: Field trial, herbicide control of Senna tora, with and without simulated rain. In kind it is in vivo. The following applies: 30 days after treatment, 720 g ae/ha. The source says:
Statistical calculations were done on the means.

Consider `CCS(=O)(=O)c1cccnc1S(=O)(=O)NC(=O)Nc1nc(OC)cc(OC)n1` [Rimsulfuron, rimsulfuron], for which, in assay [1] (Table 10, dose/ha 10 g Cato), the “% Control” value is listed as 43 ± 6%. With `O=C(O)CNCP(=O)(O)O` [Glyphosate, glyphosate], the “Control (%) of Senna tora” value in assay [2] (with 4 mm rain aftertreatment) is listed as 75.0 d %; in assay [2] (without rain aftertreatment), 96.0 a %.

Turning to `COc1cc(OC)nc(NC(=O)NS(=O)(=O)c2ncccc2C(=O)N(C)C)n1` [Nicosulfuron, nicosulfuron], the “% Control” value in assay [1] (Table 9, dose/ha 25 ml Motivell) turned out to be 87 ± 3%.
